For experiment [1] the following is noted: Bhuyan et al., 1982; cited from earlier work.
The test system of experiment [2] is Human non-small cell lung cancer Calu-6 xenografts. The experiment is classed as in vivo. To be noted: established 100 mm^3 Calu-6 xenografts; EM164 0.8 mg/mouse i.v. x6; taxol 15 mg/kg i.p. x5. The source says: Human non-small cell lung cancer Calu-6 xenografts were established in immunodeficient mice by subcutaneous injections of 1×10^7 Calu-6 cells.
The next experiment has as its system multiple myeloma. The following applies: previously untreated stages I or II myeloma; cited from earlier work.
Another experiment deals with MCF-7 (breast) cells. As to the kind of experiment: Growth and survival of MCF-7 cells (MTT assay). The experiment is classed as cell-based, human. Here is the method:
(§1) Several human tumor cell lines were tested in serum-free conditions for their growth and survival response to IGF-I. These cell lines were treated with EM164 antibody in the presence of IGF-I, IGF-II, or serum, and their growth and survival responses were measured using an MTT assay after 2-4 days. Approximately 1500 cells were plated in a 96-well plate in regular medium with serum, which was replaced with serum-free medium the following day (either serum-free RPMI medium supplemented with transferrin and BSA, or phenol-red free medium as specified by Dufourny, B. et al., 1997, J. Biol. Chem., 272, 31163-31171). After one day of growth in serum-free medium, the cells were incubated with about 75 μL of 10 μg/mL antibody for 30 min.-3 h, followed by the addition of 25 μL of IGF-I (or IGF-II or serum) solution to obtain a final concentration of 10 ng/mL IGF-I, or 20 ng/mL IGF-II, or 0.04-10% serum. In some experiments, the cells were stimulated first with IGF-I for 15 min before the addition of EM164 antibody, or both IGF-I and EM164 antibody were added together. The cells were then allowed to grow for another 2-3 days. A solution of MTT (3-(4,5)-dimethylthiazol-2-yl)-2,5-diphenyltetrazolium bromide; 25 μL of a 5 mg/mL solution in PBS) was then added and the cells were returned to the incubator for 2-3 h. The medium was then removed and replaced by 100 μL DMSO, mixed, and the absorbance of the plate was measured at 545 nm.
Background: Tetrazolium dyes change colour on reduction, which living cells bring about.

The test system of the next experiment is HT-3 (cervical) cells. As to the kind of experiment: Growth and survival of HT-3 cells (MTT assay). The experiment is classed as cell-based, human. The following applies: 10 ng/mL IGF-I, 3- to 4-day. Here is the method:
as §1, with “A solution of MTT (3-(4,5)-dimethylthiazol-2-yl)-2,5-diphenyltetrazolium bromide; 25 μL of a 5 mg/mL solution in PBS) was then added and the cells were returned to the incubator for 2-3 h.” left out

A further experiment concerns Colo 205 (colon) cells. Kind of experiment: Growth and survival of Colo 205 cells (MTT assay). It is filed as cell-based, human. The following applies: 10 ng/mL IGF-I, 3- to 4-day. Here is the method: as §1
In the next experiment the test system is HT-29 colon cancer cells. As to the kind of experiment: Growth and survival of HT-29 cells (MTT assay, colony formation). The experiment is classed as cell-based, human. The following applies: HT-29; 10 ng/mL IGF-I, 3- to 4-day. How it is done:
as §1

The next experiment concerns NCI-H838 (lung) cells. As to the kind of experiment: Growth and survival of NCI-H838 cells (MTT assay). It is filed as cell-based, human. To be noted: NCI-H838 (lung); 10 ng/mL IGF-I, 3- to 4-day. Here is the method:
as §1

The subject of experiment [3] is Calu-6 non-small cell lung cancer cells. As to the kind of experiment: Growth and survival of Calu-6 cells (MTT assay). The experiment is classed as cell-based, human. To be noted: 10 ng/mL IGF-I, 3- to 4-day. Here is the method:
as §1

In another experiment the test system is SK-LU-1 cells. As to the kind of experiment: Growth and survival of SK-LU-1 cells (MTT assay). It is filed as cell-based, human. To be noted: 10 ng/mL IGF-I, 3- to 4-day. How it is done: as §1
For a further experiment, the system named is NCI-H596 cells. As to the kind of experiment: Growth and survival of NCI-H596 cells (MTT assay). The experiment is classed as cell-based, human. To be noted: 10 ng/mL IGF-I, 3- to 4-day. How it is done: as §1
The subject of a further experiment is A 549 cells. As to the kind of experiment: Growth and survival of A 549 cells (MTT assay). The experiment is classed as cell-based, human. The following applies: 10 ng/mL IGF-I, 3- to 4-day. Here is the method: as §1, with “A solution of MTT (3-(4,5)-dimethylthiazol-2-yl)-2,5-diphenyltetrazolium bromide; 25 μL of a 5 mg/mL solution in PBS) was then added and the cells were returned to the incubator for 2-3 h.” left out

Another experiment concerns A 375 (melanoma) cells. As to the kind of experiment: Growth and survival of A 375 cells (MTT assay). The experiment is classed as cell-based, human. The following applies: 10 ng/mL IGF-I, 3- to 4-day. Here is the method:
as §1

In another experiment the test system is SK-Mel-37 cells. Kind of experiment: Growth and survival of SK-Mel-37 cells (MTT assay). It is filed as cell-based, human. To be noted: 10 ng/mL IGF-I, 3- to 4-day. How it is done:
as §1, with “A solution of MTT (3-(4,5)-dimethylthiazol-2-yl)-2,5-diphenyltetrazolium bromide; 25 μL of a 5 mg/mL solution in PBS) was then added and the cells were returned to the incubator for 2-3 h.” left out

Experiment [4] relates to RD (rhabdomyocarcoma) cells. As to the kind of experiment: Growth and survival of RD cells (MTT assay). To be noted: 10 ng/mL IGF-I, 3- to 4-day. It is filed as cell-based, human. Here is the method: as §1
Experiment [5] has as its system SaOS-2 (osteosarcoma) cells. Kind of experiment: Growth and survival of SaOS-2 cells (MTT assay). To be noted: 10 ng/mL IGF-I, 3- to 4-day. The experiment is classed as cell-based, human. How it is done:
as §1

The subject of the next experiment is A 431 (epidermoid) cells. Kind of experiment: Growth and survival of A 431 cells (MTT assay). It is filed as cell-based, human. The following applies: 10 ng/mL IGF-I, 3- to 4-day. Here is the method: as §1
Experiment [6] deals with SK-N-SH (neuroblastoma) cells. Kind of experiment: Growth and survival of SK-N-SH cells (MTT assay). It is filed as cell-based, human. To be noted: 10 ng/mL IGF-I, 3- to 4-day. How it is done: as §1
A further experiment relates to MCF-7 cells. Kind of experiment: Cell cycle analysis of MCF-7 cells (propidium iodide, flow cytometry). To be noted: IGF-I 20 ng/mL with or without EM164 20 μg/mL, 1 day. The experiment is classed as cell-based, human. Here is the method:
The EM164 antibody caused growth arrest of cells in G0/G1 phase of cell cycle and abrogated the mitogenic effect of IGF-I. For cell cycle analysis, MCF-7 cells were treated with IGF-I (20 ng/mL) in the presence or absence of EM164 (20 μg/mL) for 1 day and then analyzed by propidium iodide staining and flow cytometry.
In general terms: Flow cytometry measures light scatter and fluorescence of single cells or particles in a stream.

Experiment [7] relates to biotinylated full-length human IGF-I receptor. Kind of experiment: ELISA binding competition of humanized/chimeric versus murine EM164. Here is the method:
The affinities of the humanized EM164 antibody versions 1.0-1.3 were compared to those of murine EM164 antibody through binding competition assays using biotinylated full-length human IGF-I receptor or myc-epitope tagged truncated IGF-I receptor alpha chain, as described above. Humanized EM164 antibody samples were obtained by transient transfection of the appropriate expression vectors in human embryonic kidney 293T cells, and antibody concentrations were determined by ELISA using purified humanized antibody standards. For ELISA binding competition measurements, mixtures of humanized antibody samples and various concentrations of murine EM164 antibody were incubated with indirectly captured biotinylated full-length IGF-I receptor or myc-epitope tagged truncated IGF-I receptor alpha chain. After equilibration, the bound humanized antibody was detected using a goat-anti-human-Fab′2-antibody-horseradish peroxidase conjugate. Plots of ([bound murine Ab]/[bound humanized Ab]) vs ([murine Ab]/[humanized Ab]), which theoretically yield a straight line with slope=(Kd humanized Ab/Kd murine Ab), were used to determine the relative affinities of the humanized and murine antibodies.
An Immulon-2HB ELISA plate was coated with 100 μL of 5 μg/mL streptavidin per well in carbonate buffer at ambient temperature for 7 h. […] The wells were then washed with TBS-T buffer and incubated with goat-anti-human-Fab′2-antibody-horseradish peroxidase conjugate for 1 h (100 μL; 1 μg/mL in blocking buffer), followed by washes and detection using ABTS/H2O2 substrate at 405 nm.
On the technique in general: ELISA stands for enzyme-linked immunosorbent assay.

The target of experiment [8] is biotinylated human IGF-I receptor. Kind of experiment: ELISA binding titration (Kd) with biotinylated IGF-I receptor. To be noted: ELISA titration, non-linear regression for one-site binding; read-out: dissociation constant (Kd). Here is the method: The wells were next washed with TBS-T buffer and incubated with goat-anti-mouse-IgGH+L-antibody-horseradish peroxidase conjugate (100 μL; 0.5 μg/mL in blocking buffer), followed by washes and detection using ABTS/H2O2 substrate at 405 nm. The value of Kd was estimated by non-linear regression for one-site binding.
biotinylated human IGF-I receptor, sequence (P08069 31-736 limits assumed): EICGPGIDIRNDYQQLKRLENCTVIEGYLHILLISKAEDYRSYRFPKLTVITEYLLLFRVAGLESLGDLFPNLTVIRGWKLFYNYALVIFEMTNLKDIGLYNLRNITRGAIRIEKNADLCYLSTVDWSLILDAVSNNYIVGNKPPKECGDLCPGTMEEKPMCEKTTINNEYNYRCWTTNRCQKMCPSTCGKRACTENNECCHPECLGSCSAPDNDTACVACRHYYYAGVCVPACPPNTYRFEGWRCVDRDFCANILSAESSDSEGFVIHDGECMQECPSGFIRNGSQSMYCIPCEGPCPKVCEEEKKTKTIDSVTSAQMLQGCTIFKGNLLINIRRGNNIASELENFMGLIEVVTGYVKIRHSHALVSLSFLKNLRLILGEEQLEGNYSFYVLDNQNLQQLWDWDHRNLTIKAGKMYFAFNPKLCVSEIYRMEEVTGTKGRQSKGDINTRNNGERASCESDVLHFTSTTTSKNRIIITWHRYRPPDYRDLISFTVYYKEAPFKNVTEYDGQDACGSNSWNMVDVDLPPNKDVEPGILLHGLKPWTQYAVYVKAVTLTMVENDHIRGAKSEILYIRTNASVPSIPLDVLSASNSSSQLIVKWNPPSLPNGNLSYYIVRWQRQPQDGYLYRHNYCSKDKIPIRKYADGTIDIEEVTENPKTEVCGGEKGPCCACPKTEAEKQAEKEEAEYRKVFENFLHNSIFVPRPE
biotinylated human IGF-I receptor, sequence (P08069 741-935 limits assumed): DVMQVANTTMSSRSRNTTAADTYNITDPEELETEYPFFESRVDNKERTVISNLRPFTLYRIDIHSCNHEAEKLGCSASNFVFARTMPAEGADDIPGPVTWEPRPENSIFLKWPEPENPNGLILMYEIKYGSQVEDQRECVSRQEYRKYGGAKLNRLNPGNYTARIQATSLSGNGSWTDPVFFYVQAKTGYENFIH
A similar binding titration was carried out using the Fab fragment of EM164 antibody, prepared by papain digestion of the antibody as described by E. Harlow and D. Lane (“Using Antibodies: A Laboratory Manual”; 1999, Cold Spring Harbor Laboratory Press, New York).

Numbering of substitutions follows the chain as printed.

biotinylated full-length human IGF-I receptor, sequence (P08069 31-498 limits assumed): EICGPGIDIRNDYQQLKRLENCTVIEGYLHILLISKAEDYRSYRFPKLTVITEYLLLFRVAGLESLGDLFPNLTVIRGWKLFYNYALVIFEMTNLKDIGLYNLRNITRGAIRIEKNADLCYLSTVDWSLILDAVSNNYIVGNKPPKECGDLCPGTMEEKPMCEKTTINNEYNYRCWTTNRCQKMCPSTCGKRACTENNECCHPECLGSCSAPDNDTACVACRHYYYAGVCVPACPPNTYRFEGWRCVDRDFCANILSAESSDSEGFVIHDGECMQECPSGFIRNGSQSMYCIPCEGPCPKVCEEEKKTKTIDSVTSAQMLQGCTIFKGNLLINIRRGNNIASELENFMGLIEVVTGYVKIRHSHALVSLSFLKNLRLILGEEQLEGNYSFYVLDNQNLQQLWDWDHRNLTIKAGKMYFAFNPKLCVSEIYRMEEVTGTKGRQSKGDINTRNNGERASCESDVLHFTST

For the molecule `COc1c(O)c2c(c3cc(C(=O)N4CCc5c4c(O)c(OC)c4[nH]c(C(=O)N6CC7CC78C6=CC(=O)c6[nH]cc(C)c68)cc54)[nH]c13)CCN2C(N)=O` (stereo not shown) [CC-1065], in [1], the “potency in vitro relative to doxorubicin, methotrexate and vincristine” value was “about 1000 fold”.
For the molecule `CC(=O)O[C@H]1C(=O)[C@@]2(C)[C@H]([C@H](OC(=O)c3ccccc3)[C@]3(O)C[C@H](OC(=O)[C@H](O)[C@@H](NC(=O)c4ccccc4)c4ccccc4)C(C)=C1C3(C)C)[C@]1(OC(C)=O)CO[C@@H]1C[C@@H]2O` [taxol, reference compound], the growth of tumors entry in experiment [2] was “effective until day 14”.
With IFN-α, the “patients who responded to treatment” value with multiple myeloma is 7 of 14.
Turning to “IGF-I: insulin-like growth factor-I, ligand of the IGF-I receptor used as growth stimulant [reference compound]”, the “Fold growth response to IGF-I (MTT assay: ratio for IGF-I treated vs untreated cells in serum-free medium)” value in the experiment on MCF-7 (breast) cells (MCF-7 (breast), 10 ng/mL IGF-I, 3- to 4-day) is recorded as 1.7-2.8; with HT-3 (cervical) cells, 2; with Colo 205 (colon) cells, 2.3; in the experiment with HT-29 colon cancer cells it was 1.5; in the experiment on NCI-H838 (lung) cells, 3; in experiment [3] it was 1.6-1.8. Besides, the “Fold growth response to IGF-I (MTT assay: ratio for IGF-I treated vs untreated cells in serum-free medium)” value in the experiment with SK-LU-1 cells turned out to be 1.4; in the experiment with NCI-H596 cells, 1.4; in the experiment on A 549 cells, 1.2; in the experiment on A 375 (melanoma) cells, 1.6; with SK-Mel-37 cells it was 1.4; in [4] it was 1.7. Also, the figures for the “Fold growth response to IGF-I (MTT assay: ratio for IGF-I treated vs untreated cells in serum-free medium)” value (in [5]; in the experiment with A 431 (epidermoid) cells; in experiment [6]) were 2.5, 2.2 and 2, respectively. Moreover, the “cells in the G0/G1 phase” value in the experiment with MCF-7 cells stood at 50%. Moreover, the “cells in the S phase” value in the experiment with MCF-7 cells is given as 41%.

B1: chimeric version of EM164 antibody with 92F→C mutation: chimeric version of EM164 antibody with 92F→C mutation in heavy chain (antibody, V domains shown)
VH: QVQLQQSGAELVKPGASVKLSCKASGYTFTSYWMHWVKQRPGQGLEWIGEINPSNGRTNYNEKFKRKATLTVDKSSSTAYMQLSSLTSEDSAVYYCARGRPDYYGSSKWYFDVWGAGTTVTVSS
VL: DVLMTQTPLSLPVSLGDQASISCRSSQSIVHSNVNTYLEWYLQKPGQSPKLLIYKVSNRFSGVPDRFSGSGSGTDFTLRISRVEAEDLGIYYCFQGSHVPPTFGGGTKLEIK
In the case of B1, in experiment [7], the “lower affinity than murine EM164 antibody for binding to IGF-I receptor” value came to 3 fold. The “slope in binding competition with murine EM164 antibody” value in experiment [7] (similar binding competition) is “about 3”.

B2: Fab fragment of EM164 antibody: Fab fragment of EM164 antibody, prepared by papain digestion (antibody, V domains shown)
VH: QVQLQQSGAELVKPGASVKLSCKASGYTFTSYWMHWVKQRPGQGLEWIGEINPSNGRTNYNEKFKRKATLTVDKSSSTAYMQLSSLTSEDSAVYYFARGRPDYYGSSKWYFDVWGAGTTVTVS
VL: DVLMTQTPLSLPVSLGDQASISCRSSQSIVHSNVNTYLEWYLQKPGQSPKLLIYKVSNRFSGVPDRFSGSGSGTDFTLRISRVEAEDLGIYYCFQGSHVPPTFGGGTKLEIKR
For B2, the Kd in experiment [8] was determined as 0.3 nM.

B3: humanized EM164 v1.0: resurfaced EM164 with all 10 human surface residues (light chain aa3 V, aa45 R) (antibody, V domains shown)
VH: B2 VH with Q5V, L11V, E62Q, K65Q, R66G, A116Q
VL: B2 VL with L3V, Q18P, K50R, S72A
With B3, the “inhibition of serum-stimulated growth and survival of MCF-7 cells, compared with murine EM164” value in the experiment with MCF-7 (breast) cells was “similar”. Also, the “slope (=Kd humanized Ab / Kd murine Ab)” value in [7] (biotinylated IGF-I receptor, FIG. 11, r^2=0.996) was 0.52.

The Kd is the equilibrium constant for the complex coming apart.

The values above are taken from patent US8034904B2, “Anti-IGF-I receptor antibody” (Immunogen Inc., priority 2002, dated 2011).
